PMC7804942, “The amphibian peptide Yodha is virucidal for Zika and dengue viruses” (Scientific Reports, 2021)
pIC50: −log10 of the molar value. Where no end group is shown, it is not given here.

Assays:
[1] = test system: ZIKV; test: ZIKV neutralisation by mutant, enantiomer and variant peptides (strain not stated); assay type: cell-based, Zika virus
Method: To further characterize Yodha peptide, we generated alanine-scanning mutants of the peptide, which removes the side chain, but maintains peptide conformation, allowing for the assessment of the significance of each amino acid within the larger structure (Fig. 4A). Each of 23 mutated peptides was tested for its (a) ability to neutralize ZIKV (Fig. 4B) and (b) toxicity against human RBC, if any (Fig. 4C).
So next, we sought to determine how common this peptide or its analogs are in host defense peptides isolated from elsewhere in the world. […] We then determined the extent to which any of these variant peptides can neutralize ZIKV. […] We also generated a series of mutant Yodha peptides, including one which lacks the C terminal DDQERC, a short 12 peptide fragment that lacks the EEERGA from variant #12, and a S1P peptide that replace S1-P in the full-length Yodha (Fig. 5D) and tested their activity against ZIKV (Fig. 5D).
(§1) Peptides were incubated with ZIKV (100 FFU/well) for 2 h at 37 °C. This incubated mixture was used to infect Vero cells for 1.5 h at 37 °C. Cells and inoculum were overlaid with 2% methylcellulose solution (OptiMEM; Gibco) and incubated for 72 h at 37 °C. Cells were washed with PBS and fixed with a 1:1 methanol/acetone mixture for 30 min. Cells were blocked with 5% milk/PSB at room temperature for 20 min and incubated with primary antibody (anti-flavivirus mouse 4G2[10] antibody) for 2 h at 37 °C. Then, cells were incubated with secondary antibody (HRP-conjugated goat anti-mouse IgG, Cell Signaling) for 1 h at 37 °C. Cells were developed with TrueBlue Peroxidase Substrate (KPL). Plates were read on a CTL-ImmunoSpot S6 Micro analyzer.

[2] = test system: DENV3; details: FFA
Method: Dengue virus strains 1, 2, 3 and 4 were treated with wither Yodha or control OVA peptide at (A) 50 µM (B) 160 µM concentration and the % of viral focus forming units were determined. (C) IC50 measurement of Yodha in DENVs infection by FFA. […] OVA peptide was used a negative control.
as §1

PMLLLFFLGTISLSLCQEERGA [variant 21, naturally occurring variant of Yodha isolated from the frog I. temporalis]
virucidal activity of naturally occurring variants against ZIKV [1]: exhibited activity

PMLLLFFLGTISLSLCQEEERGA [variant #12, brevinin-2KK2, naturally occurring variant of Yodha from Rana kukunoris]
increased effect against ZIKV than Yodha peptide [1]: 1.6 fold

PMLLLFFLGTISLSLCQ [truncated Yodha variant 12]
efficiency against DENV3 compared to the full length Yodha peptide ([2]; dose escalation): very efficient
pIC50 ([2]; read-out: IC50 for DENV3): 4.52
activity of truncated and S1P mutant peptides against ZIKV versus WT Yodha [1]: significantly improved activity
